The values that follow come from patent US20130281524A1, “NOVEL TREATMENTS” (priority 2008, published 2013).

Experiment [1] has as its system gap junction communication between neurons and satellite glial cells in the trigeminal ganglion. The experiment is described as follows: Dye coupling studies (True Blue) of neuron-satellite glia gap junction signalling in trigeminal ganglion after TNF-α and capsaicin. Type of experiment: in vivo, Sprague Dawley rats. Conditions: 10 mg/kg i.p. pre-treatment prior to TNF-α then capsaicin; V1 and V2 regions of ganglia. Here is the method:
(§1) Sprague Dawley rats injected with True Blue were used to localize neuronal cell bodies in the ganglion and study neuron-glia signalling via gap junctions in the trigeminal ganglion. Dye coupling studies were conducted under basal conditions and in response to tumour necrosis factor-α injection into the whisker pad and/or capsaicin injection into the eyebrow. Changes in connexin 26 and active p38 levels were determined by immunohistochemistry.
(§2) In addition, the effect of tonabersat prior to chemical stimulation on gap junction activity and expression of connexins and active p38 was investigated.
Young male rats (200-225 g) were brought to the lab and kept in a quiet environment for about 30 minutes. Rats were anesthetized by an intraperitoneal (i.p.) injection of 0.3 ml of ketamine and xylazine solution (800 mg and 60 mg in 10 ml, respectively; Sigma, St. Louis, Mo.). […] Initially, rats were injected with a fluorescent dye, True Blue (25 μl, 2 mg/ml in dimethyl sulfoxide, DMSO; Invitrogen, Eugene, Oreg.) in the whisker pad or eyebrow regions to retrogradely label neuronal cell bodies within the V1 and V2 regions of the trigeminal ganglion. Bilateral injections were performed using a 50 μL Hamilton syringe (Hamilton Company, Reno, Nev.) and a 261/2 G needle (Becton Dickinson, FranklinLakes, N.J.). […]

Another experiment deals with connexin 26. Briefly: Immunohistochemistry of connexin 26 in trigeminal ganglia after TNF-α and capsaicin. The following applies: 10 mg/kg i.p. pre-treatment. Type of experiment: in vivo, Sprague Dawley rats. As to the method:
as §1, §2
Ganglia were collected from untreated animals or animals injected with TNF-α, capsaicin, or TNF-α and capsaicin as described above. Sections were fixed using 4% paraformaldehyde for 60 minutes, permeabilized with 0.3% Triton-X100 for 60 minutes, and then incubated in 5% donkey serum for another 60 minutes. Sections were then incubated overnight at 4° C. with primary antibodies against connexin 26 (1:500 in PBS; Chemicon, Temecula, Calif.) or active p38 MAP kinase (1:200; Cell Signaling Technology, Danvers, Mass.). […]

For a further experiment, the system named is active p38 MAP kinase. The experiment is described as follows: Immunohistochemistry of active p38 in trigeminal ganglia after TNF-α and capsaicin. Type of experiment: in vivo, Sprague Dawley rats. Conditions: 10 mg/kg i.p. pre-treatment, neurons and satellite glial cells in V1 and V2 regions, compared to TNF-α and capsaicin treated animals. Here is the method:
as §1, §2
Ganglia were collected from untreated animals or animals injected with TNF-α, capsaicin, or TNF-α and capsaicin as described above. Sections were fixed using 4% paraformaldehyde for 60 minutes, permeabilized with 0.3% Triton-X100 for 60 minutes, and then incubated in 5% donkey serum for another 60 minutes. Sections were then incubated overnight at 4° C. with primary antibodies against connexin 26 (1:500 in PBS; Chemicon, Temecula, Calif.) or active p38 MAP kinase (1:200; Cell Signaling Technology, Danvers, Mass.). Immunoreactive proteins were visualized following incubation with Rhodamine Red Xconjugated donkey anti-rabbit antibodies (diluted 1:100 in PBS, Jackson Immuno-Research Laboratories, West Grove, Pa.) for 1 hour at room temperature and then mounted in Vectashield medium (H-1200) containing 4′,6 diamidino-2-phenylindole (DAPI) to allow for identification of neuronal and glial cell nuclei. As a control, some sections were incubated for 1 hour at room temperature with only the Rhodamine Red Xconjugated anti-rabbit antibodies. Images were collected as described above.
To determine whether TNF-α sensitization of capsaicin-responsive neurons could lead to increased expression of p38, animals were injected with TNF-α, capsaicin, or both agents and ganglion sections stained for the active phosphorylated form of p38. […]

The test system of another experiment is trigeminal nerve. Conditions: Parsons et al., Brit. J. Pharmacol. 2001, cited from earlier work.

“Also recorded” adds a separate entry of the source.

For the molecule `CC(=O)c1ccc2c(c1)[C@H](NC(=O)c1ccc(F)c(Cl)c1)[C@H](O)C(C)(C)O2` [tonabersat, cis-6-acetyl-4-(S)-(3-chloro-4-fluorobenzoylamino)-3,4-dihydro-2,2-dimethyl-2H-1-benzopyran-3-(S)-ol], in experiment [1], the “stimulated dye movement between neurons and satellite glial cells (gap junction communication)” value was “greatly reduced; also recorded: decrease”. Moreover, the “level of connexin 26 staining” value in the experiment on connexin 26 (V1 and V2 regions, compared to animals treated with TNF-α and capsaicin) is on record as “greatly decreased; also recorded: decrease”. For the same molecule, the “number of plaques observed between neurons and satellite glial cells” value in the experiment with connexin 26 (ganglia from TNF-α and capsaicin treated animals, higher magnification) is “much lower”. Moreover, the “active p38 levels” value is recorded as “greatly decreased; also recorded: blocked” in the experiment on active p38 MAP kinase and “lowered p38 levels to those observed in ganglia obtained from untreated control animals” in the experiment on active p38 MAP kinase (listed as Tonabersat). In addition, the “amount of nuclear staining of active p38” value with active p38 MAP kinase is “greatly decreased”. Also, in the experiment with trigeminal nerve (10 mg/kg, animal models), the trigeminal nerve activation result is listed as “block”. Also, in the experiment on trigeminal nerve, the trigeminal parasympathetic reflexes entry was “blockade”.
